{"source": "patent US20060039955A1", "about": "“Animal feed compositions with enhanced histidine content” (Cargill, Incorporated, priority 2004, published 2006)", "key": {"[1]": {"assay": "Poultry digestibility trial (intestinal digestibility of His and Lys sources)", "format": "in vivo", "protocol": "This trial tested four different sources of AA for their intestinal digestibility. Crystalline His and Lys were coated with partially hydrogenated vegetable oil to test their digestibility as compared to His(HCl) and Lys(HCl), respectively. His(HCl) contains 74.3 wt. % His, whereas, the coated product contains 40 wt. % His. Lys(HCl) contains 78.8 wt. % Lys, whereas, the coated product contains 45 wt. % Lys. For this trial the test articles were added at low levels. The control diet was used as a blank to measure endogenous losses and to calculate the digestibility of His and Lys. The control diet was spiked with His or Lys by using either His(HCl) or Lys(HCl), respectively, (0.50% inclusion rate). This provided His and Lys at 0.372% and 0.394%, respectively. The coated His and Lys products were added to provide the same level of His or Lys as provided by the His(HCl) or Lys(HCl), respectively. The digestibility of His and Lys in the casein was determined and this effect was assessed in calculating the digestibility of the coated His and coated Lys. All test diets contained the same amount of casein (the only other source of His and Lys) as the control diet."}, "[2]": {"set-up": "species or system cows", "conditions": "cow, in vivo", "protocol": "Free Amino Acid degradation in vivo was determined using a technique that used cobalt (CoII) as a ruminal flow marker to follow the flow of Maillard-protected histidine (which had been reacted with lactose) out of the rumen. Maillard-protected histidine loss was evaluated relative to CoII outflow in fistulated cows. Free histidine or histidine modified by the Maillard Reaction Protocol were introduced into fistulated cows together with Cobalt II. After introducing the histidine or modified histidine into the cows, samples of rumen fluid periodically were withdrawn and the amount of histidine was determined using an O-phthaldialdehyde assay as described by Roth (1971), Anal. Chem. 43:880. The amount of CoII was determined using inductively coupled plasma emission spectroscopy. The amount of histidine related to CoII was plotted versus time to calculate a degradation coefficient (Kd) for free and protected histidine."}}, "data": [{"smiles": "Cl.N[C@@H](Cc1c[nH]cn1)C(=O)O", "note": "[Histidine HCl]", "values": [{"measurement": "App. His Dig.", "setting": "[1]; apparent histidine digestibility, His at 0.372% of diet", "result": 99.3}, {"measurement": "True His. Dig.", "setting": "[1]; true histidine digestibility, His at 0.372% of diet", "result": 100.2}]}, {"smiles": "Cl.NCCCC[C@H](N)C(=O)O", "note": "[Lysine HCL]", "values": [{"measurement": "App. Lys. Dig.", "setting": "[1]; apparent lysine digestibility, Lys at 0.394% of diet", "result": 97.3}, {"measurement": "True Lys Dig.", "setting": "[1]; true lysine digestibility, Lys at 0.394% of diet", "result": 99.6}]}, {"smiles": "N[C@@H](Cc1c[nH]cn1)C(=O)O", "note": "[free histidine, histidine]", "values": [{"measurement": "degradation coefficient (Kd)", "setting": "[2]", "result": "0.000208 to 0.000264", "unit": "s⁻¹"}]}]}
